Measurements reported in ChEMBL document CHEMBL5727878, “Triazole furan compounds as agonists of the APJ receptor” (2020).
Several values for one entry are separate records, joined by “and”; a condition that tells them apart may be missing. Equal entries are not always repeated.

What follows are molecules tested against T1, Apelin receptor (Homo sapiens, UniProt P35414) (assay: GTPγS Binding: The human APJ receptor was cloned by polymerase chain reaction and the gene encoding the receptor was subcloned in pFLAG-CMV-3 expression vector (Sigma, Saint Louis, Mo. USA) in-house at Amgen. A GTPγS binding assay was performed on membranes prepared from CHO cells stably expressing human APJ receptor. The optimum experimental conditions for the concentrations of GDP, MgCl2, and NaCl in the assay buffer were initially determined. The assay was performed in assay buffer [20 mM HEPES, pH 7.5, 5 mM MgCl2, and 0.1% (w/v) BSA with 200 mM NaCl, 3 μM GDP] and membranes expressing human APJ receptor/well along with WGA PS beads. The reaction was initiated by addition of 0.2 nM [35S]GTPγS in the absence or presence of various ligands and incubated at RT for 90 min. Nonspecific binding was determined in the presence of 100 μM GTPγS and was always less than 0.2% of total binding.).
T1 sequence (P35414 whole entry): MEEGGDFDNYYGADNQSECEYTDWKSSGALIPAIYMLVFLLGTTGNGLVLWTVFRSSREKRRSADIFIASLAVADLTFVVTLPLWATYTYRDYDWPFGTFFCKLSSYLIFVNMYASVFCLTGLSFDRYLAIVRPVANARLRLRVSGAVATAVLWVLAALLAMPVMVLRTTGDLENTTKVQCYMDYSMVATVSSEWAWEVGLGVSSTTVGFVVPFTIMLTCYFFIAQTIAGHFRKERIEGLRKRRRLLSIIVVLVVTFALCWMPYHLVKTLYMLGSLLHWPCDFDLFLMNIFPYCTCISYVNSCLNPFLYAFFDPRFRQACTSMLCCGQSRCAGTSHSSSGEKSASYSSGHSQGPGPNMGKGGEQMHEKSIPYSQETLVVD
With `COc1cccc(OC)c1-n1c(NS(=O)(=O)[C@@H](C)[C@@H](OCCO)c2ncc(C)cn2)nnc1-c1ccc(C)o1` (single isomer, unassigned) the EC50 was 0.15 nM.
Molecule `COc1cccc(OC)c1-n1c(NS(=O)(=O)[C@H]2CCCN(c3ncc(F)cn3)C2)nnc1-c1ccc(C)o1` (single isomer, unassigned) has an EC50 of 3.2 nM.
Work on `COc1cnc([C@@H](O)[C@H](C)S(=O)(=O)Nc2nnc(-c3ccc(C)o3)n2-c2c(OC)cccc2OC)cn1` (mixture of isomers) yielded an EC50 of 0.25 nM.
`COc1cccc(OC)c1-n1c(NS(=O)(=O)[C@H](C)[C@](C)(O)c2ncc(F)cn2)nnc1-c1ccc(C)o1` (single isomer, unassigned) gave an EC50 of 0.57 nM.
Work on `COc1cccc(OC)c1-n1c(NS(=O)(=O)[C@@H](C)[C@@H](O)c2ncc(F)cn2)nnc1-c1ccc(C)o1` (single isomer, unassigned) yielded an EC50 of 0.32 nM.
`COc1cccc(OC)c1-n1c(NS(=O)(=O)CCc2ccc(F)cn2)nnc1-c1ccco1` showed an EC50 of 12 nM.
`COc1cccc(OC)c1-n1c(NS(=O)(=O)[C@H]2C[C@@H](O)CN(c3cc(C#N)ccn3)C2)nnc1-c1ccc(C)o1` (single isomer, unassigned) gave an EC50 of 0.17 nM.
Molecule `Cc1ccc(-c2nnc(NS(=O)(=O)[C@@H](C)Cc3ncc(F)cn3)n2C2CCCC2)o1` (mixture of isomers) has an EC50 of 270 nM.
`COc1ncnc(OC)c1-n1c(NS(=O)(=O)[C@@H](C)Cc2ncc(F)cn2)nnc1-c1ccc(C)o1` (mixture of isomers) showed an EC50 of 3 nM.
In the case of `COC[C@H]1CCCC(=O)N1C[C@@H](C)S(=O)(=O)Nc1nnc(-c2ccc(C)o2)n1-c1c(OC)cccc1OC` (single isomer, unassigned), the EC50 is reported as 0.48 nM.
Work on `COc1cccc(OC)c1-n1c(NS(=O)(=O)[C@H](C)[C@@H](O)c2ccnc3c2OCCC3)nnc1-c1ccc(C)o1` (mixture of isomers) yielded an EC50 of 13 nM.
For `COc1cccc(OC)c1-n1c(NS(=O)(=O)[C@H](C)[C@@H](O)c2cnc(C)cn2)nnc1-c1ccc(C)o1` (single isomer, unassigned), the EC50 was 1.5 nM.
Molecule `COc1cccc(OC)c1-n1c(NS(=O)(=O)[C@H]2CCCC[C@H]2c2ncc(F)cn2)nnc1-c1ccco1` (single isomer, unassigned) has an EC50 of 4.5 nM.
`COc1cccc(OC)c1-n1c(NS(=O)(=O)[C@H](C)[C@@H](O)c2cc3ccccn3n2)nnc1-c1ccc(C)o1` (mixture of isomers) was tested, and the EC50 was 0.65 nM.
For `COc1cccc(OC)c1-n1c(NS(=O)(=O)C[C@H](O)c2ccc(Cl)cc2S(C)(=O)=O)nnc1-c1ccc(C)o1` (single isomer, unassigned), the EC50 was 0.09 nM.
For `COc1cccc(OC)c1-n1c(NS(=O)(=O)C[C@@](C)(O)c2ncc(C#N)cn2)nnc1-c1ccc(C)o1` (mixture of isomers), the EC50 was 0.65 nM.
With `COc1cccc(OC)c1-n1c(NS(=O)(=O)[C@@H]2CCCC[C@H]2c2ncc(F)cn2)nnc1-c1ccco1` (single isomer, unassigned) the EC50 was 30 nM.
In the case of `COc1cccc(OC)c1-n1c(NS(=O)(=O)C[C@H](O)c2ccc(F)cn2)nnc1-c1ccc(C)o1` (mixture of isomers), the EC50 is reported as 0.17 nM.
Work on `COc1cccc(OC)c1-n1c(NS(=O)(=O)[C@@H](C)[C@H](O)c2cc3n(n2)CCCO3)nnc1-c1ccc(C)o1` (single isomer, unassigned) yielded an EC50 of 1.2 nM.
`COc1cccc(OC)c1-n1c(NS(=O)(=O)[C@@H](C)[C@@H](OC)c2cn3ccccc3n2)nnc1-c1ccc(C)o1` (mixture of isomers) gave an EC50 of 0.96 nM.
`COc1cccc(OC)c1-n1c(NS(=O)(=O)CCN2C(=O)N(C)CC[C@H]2C)nnc1-c1ccco1` (single isomer, unassigned) showed an EC50 of 0.7 nM.
`COc1cccc(OC)c1-n1c(NS(=O)(=O)[C@@H](C)Cc2ncc(F)c3[nH]cnc23)nnc1-c1ccco1` (single isomer, unassigned) showed an EC50 of 28 nM.
In the case of `COc1cccc(OC)c1-n1c(NS(=O)(=O)[C@@H](C)Cc2ncc(F)cc2N2C[C@H](O)CC2=O)nnc1-c1ccco1` (mixture of isomers), the EC50 is reported as 0.61 nM.
With `COc1cc[nH]c(=O)c1-n1c(NS(=O)(=O)[C@@H](C)[C@H](C)c2ncc(C)cn2)nnc1-c1ccc(C)o1` (single isomer, unassigned; form 2) the EC50 was 37 nM.
`COc1cccc(OC)c1-n1c(NS(=O)(=O)[C@@H]2C[C@H](c3ccc(F)cc3)CN(C(C)=O)C2)nnc1-c1ccc(C)o1` (single isomer, unassigned) showed an EC50 of 1.1 nM.
In the case of `COc1cccc(OC)c1-n1c(NS(=O)(=O)[C@@H](C)[C@@H](O)c2cnc3ccccn23)nnc1-c1ccc(C)o1` (single isomer, unassigned), the EC50 is reported as 0.96 nM.
For `COc1cccc(OC)c1-n1c(NS(=O)(=O)[C@H]2CCC[C@@H]2c2ncc(F)cn2)nnc1-c1ccc(C)o1` (mixture of isomers), the EC50 was 2 nM.
`COc1cccc(OC)c1-n1c(NS(=O)(=O)[C@@H](C)[C@@H](O)c2coc(C)n2)nnc1-c1ccc(C)o1` (single isomer, unassigned) was tested, and the EC50 was 8.3 nM.
Molecule `COc1cc[nH]c(=O)c1-n1c(NS(=O)(=O)[C@@H](C)[C@H](C)c2ncc(F)cn2)nnc1-c1ccc(C)o1` (single isomer, unassigned; form 2) has an EC50 of 51 nM.
For `COc1cccc(OC)c1-n1c(NS(=O)(=O)[C@H](C)Cc2ncc(F)cn2)nnc1-c1ccco1` (mixture of isomers), the EC50 was 0.29 nM.
`COC[C@@H]1CCCC(=O)N1CCS(=O)(=O)Nc1nnc(-c2ccco2)n1-c1c(OC)cccc1OC` (single isomer, unassigned) gave an EC50 of 2.1 nM.
With `CCc1ccc(-c2nnc(NS(=O)(=O)[C@@H](C)Cc3ncc(F)cn3)n2-c2c(OC)cccc2OC)o1` (mixture of isomers) the EC50 was 0.13 nM.
For `COc1cccc(OC)c1-n1c(NS(=O)(=O)[C@H]2COC[C@@H]2c2ncc(F)cn2)nnc1-c1ccco1` (single isomer, unassigned), the EC50 was 28 nM.
`COc1cccc(OC)c1-n1c(NS(=O)(=O)[C@H](C)Cc2ncc(F)cc2NC(C)=O)nnc1-c1ccco1` (single isomer, unassigned) showed an EC50 of 0.21 nM.
Work on `COc1cccc(OC)c1-n1c(NS(=O)(=O)CCc2ncc(F)cn2)nnc1-c1ccco1` yielded an EC50 of 3.2 nM.
With `COc1cc[nH]c(=O)c1-n1c(NS(=O)(=O)[C@@H](C)[C@H](C)c2ncc(C)cn2)nnc1-c1ccc(C)o1` (single isomer, unassigned; form 1) the EC50 was 0.75 nM.
`COc1cc[nH]c(=O)c1-n1c(NS(=O)(=O)[C@@H](C)[C@H](C)c2ncc(F)cn2)nnc1-c1ccc(C)o1` (single isomer, unassigned; form 1) gave an EC50 of 0.67 nM.
`COCn1cnc2c(C[C@H](C)S(=O)(=O)Nc3nnc(-c4ccco4)n3-c3c(OC)cccc3OC)ncc(F)c21` (mixture of isomers) showed an EC50 of 0.77 nM.
Work on `COc1cccc(OC)c1-n1c(NS(=O)(=O)[C@@H](C)Cc2ncc(F)c3c2ncn3C)nnc1-c1ccco1` (single isomer, unassigned) yielded an EC50 of 0.98 nM.
Work on `COc1cccc(OC)c1-n1c(NS(=O)(=O)[C@@H](C)[C@H](C)c2cnc(C)c[n+]2[O-])nnc1-c1ccc(C)o1` (mixture of isomers) yielded an EC50 of 0.14 nM.
`COc1cccc(OC)c1-n1c(NS(=O)(=O)CCc2ncc(Cl)cc2C2=CCN(C(C)=O)CC2)nnc1-c1ccco1` showed an EC50 of 0.32 nM.
For `COc1cccc(OC)c1-n1c(NS(=O)(=O)[C@@H]2C[C@@H](c3ccc(F)cc3)CN(C(C)=O)C2)nnc1-c1ccc(C)o1` (single isomer, unassigned), the EC50 was 0.75 nM.
For `COc1cccc(OC)c1-n1c(NS(=O)(=O)[C@@H](C)[C@H](O)c2cscn2)nnc1-c1ccc(C)o1` (mixture of isomers), the EC50 was 1.2 nM.
Molecule `COc1cccc(OC)c1-n1c(NS(=O)(=O)[C@@H]2CCC[C@H]2c2ncc(F)cn2)nnc1-c1ccc(C)o1` (single isomer, unassigned) has an EC50 of 2.8 nM.
`COc1cccc(OC)c1-n1c(NS(=O)(=O)[C@@H]2C[C@@H](C(=O)N3CCC3)CN(c3ncc(F)cn3)C2)nnc1-c1ccc(C)o1` (mixture of isomers) showed an EC50 of 0.32 nM.
`COc1cccc(OC)c1-n1c(NS(=O)(=O)C[C@H](O)c2ccc(F)cn2)nnc1-c1ccc(C)o1` (single isomer, unassigned) was tested, and the EC50 was 0.29 nM.
For `COc1cccc(OC)c1-n1c(NS(=O)(=O)[C@H]2C[C@@H](C(=O)N3CCC3)CN(c3ncc(F)cn3)C2)nnc1-c1ccc(C)o1` (mixture of isomers), the EC50 was 0.35 nM.
`COc1cccc(OC)c1-n1c(NS(=O)(=O)CCN2C(=O)CCC[C@@H]2C)nnc1-c1ccco1` (single isomer, unassigned) was tested, and the EC50 was 1 nM.
In the case of `COc1cccc(OC)c1-n1c(NS(=O)(=O)[C@H](C)[C@H](O)c2cscn2)nnc1-c1ccc(C)o1` (mixture of isomers), the EC50 is reported as 16 nM.
With `COc1cccc(OC)c1-n1c(NS(=O)(=O)[C@@H](C)Cc2ncc(Br)cn2)nnc1-c1ccco1` (single isomer, unassigned) the EC50 was 0.31 nM.
`COc1cccc(OC)c1-n1c(NS(=O)(=O)[C@@H](C)[C@@H](O)c2ncn3ccccc23)nnc1-c1ccc(C)o1` (single isomer, unassigned) showed an EC50 of 1.4 nM.
Molecule `CCc1cnc([C@@H](C)[C@H](C)S(=O)(=O)Nc2nnc(-c3ccc(C)o3)n2-c2c(OC)cccc2OC)nc1` (single isomer, unassigned) has an EC50 of 3.4 nM.
Work on `COc1cccc(OC)c1-n1c(NS(=O)(=O)[C@@H](C)[C@@H](O)c2cn3ccccc3n2)nnc1-c1ccc(C)o1` (single isomer, unassigned) yielded an EC50 of 1 nM.
With `COc1cccc(OC)c1-n1c(NS(=O)(=O)[C@@H](C)[C@@H](O)c2cccc3ccnn23)nnc1-c1ccc(C)o1` the EC50 was 0.79 nM and 0.87 nM.
With `COc1cccc(OC)c1-n1c(NS(=O)(=O)[C@@H](C)[C@H](O)c2cc3ccccn3n2)nnc1-c1ccc(C)o1` (single isomer, unassigned) the EC50 was 3.7 nM.
